Key:
Format in all cases: in vivo
[1] = system: serotonin 5HT2 -receptors; experiment: Combined ATN test in rats: tryptamine (TRY) challenge, central and peripheral serotonin antagonism; conditions: subcutaneous pretreatment, dose protecting 50% of animals; for TRY convulsions ED50: central serotonin antagonistic activity; for TRY hyperaemia ED50: peripheral serotonin antagonistic activity
Excerpt: The central dopamine antagonistic and serotonin antagonistic activity of the subject compounds is evidenced by the experimental data obtained in the combined apomorphine (APO), tryptamine (TRY) and norepinephrine (NOR) test in rats. Said combined apomorphine, tryptamine and norepinephrine test is described in Arch. Int. Pharmacodyn., 227, 238-253 (1977) and provides an empirical evaluation of the relative specificity with which drugs may effect particular neurotransmitter systems centrally (CNS) as well as peripherally. […] Central dopamine antagonism is evaluated by challenging rats, subcutaneously pretreated with different doses of the test compound, with apomorphine which is a dopamine agonist. Next, serotonin antagonism is evaluated by challenging the same rats, subcutaneously pretreated with different doses of the test compound, with tryptamine which is an agonist at serotonin 5HT2 -receptors. Both central and peripheral serotonin antagonism can be assessed in this test. Centrally acting serotonin antagonists are potential antipsychotic drugs, in particular when simultaneously displaying dopamine antagonism in the first part of this test. Finally, α-adrenergic antagonistic activity of the test compounds is evaluated by challenging the same rats, subcutaneously pretreated with different doses of the test compound, with norepinephrine which is an α-adrenergic agonist.
The experimental data are summarized in Table 3 and expressed as ED50 values in mg/kg body weight, which are defined as the dose at which each of the tested compounds protects 50% of the tested animals from a relevant response evoked by the above-mentioned challenging substances. Column APO lists the results of the apomorphine challenge, indicating central dopamine antagonistic activity. Column TRY convulsions and TRY hyperaemia list the results of the tryptamine challenge, indicating central and peripheral serotonin antagonistic activity respectively. Column NOR lists the results of the norepinephrine challenge, indicating α-adrenergicantagonist activity. The favourable pharmacological properties of the compounds of formula (I) lie in their potent central dopamine (column APO) and serotonin (column TRY convulsions) antagonistic activity.

[2] = system: dopamine; experiment: Combined ATN test in rats: apomorphine (APO) challenge, central dopamine antagonism; conditions: Rattus norvegicus, sc, subcutaneous pretreatment, dose protecting 50% of animals, central dopamine antagonistic activity
[3] = system: α-adrenergic; experiment: Combined ATN test in rats: norepinephrine (NOR) challenge, α-adrenergic antagonist activity; conditions: Rattus norvegicus, sc, subcutaneous pretreatment, dose protecting 50% of animals

| SMILES | TRY convulsions ED50 [1] | TRY hyperaemia ED50 [1] | ED50 [2] | ED50 [3] |
| --- | --- | --- | --- | --- |
| Cc1nc2sccn2c(=O)c1CCN1CC[C@H]2Nc3ccccc3[C@@H]2C1 (racemic) [Compound 11, (±)-trans-6-[2-(1,3,4,4a,5,9b-hexahydro-2H-pyrido[4,3-b]indol-2-yl)ethyl]-7-methyl-5H-thiazolo[3,2-a]pyrimidin-5-one] | 0.31 mg/kg | ≤ 0.04 mg/kg | 0.31 mg/kg |  |
| Cc1nc2sccn2c(=O)c1CCN1CC[C@H]2Nc3ccc(F)cc3[C@@H]2C1 (racemic) [Compound 15, (±)-trans-6-[2-(8-fluoro-1,3,4,4a,5,9b-hexahydro-2H-pyrido[4,3-b]indol-2-yl)ethyl]-7-methyl-5H-thiazolo[3,2-a]pyrimidin-5-one] | 0.31 mg/kg | ≤ 0.0025 mg/kg | 0.31 mg/kg | > 10 mg/kg |
| Cc1nc2n(c(=O)c1CCN1CC[C@@H]3[C@@H](C1)c1cc(F)ccc1N3c1ccc(F)cc1)CCS2 (racemic) [Compound 23, (±)-trans-6-[2-[8-fluoro-5-(4-fluoro-phenyl)-1,3,4,4a,5,9b-hexahydro-2H-pyrido[4,3-b]indol-2-yl]ethyl]-2,3-dihydro-7-methyl-5H-thiazolo[3,2-a]pyrimidin-5-one] | 0.08 mg/kg | ≤ 0.01 mg/kg | 0.12 mg/kg | 0.03 mg/kg |
| Cc1nc2scc(C)n2c(=O)c1CCN1CC[C@H]2Nc3ccccc3[C@@H]2C1 (relative stereo) [Compound 12] | 1.25 mg/kg | 0.02 mg/kg | 1.25 mg/kg | > 10 mg/kg |
| Cc1nc2n(c(=O)c1CCN1CC[C@H]3Nc4ccccc4[C@@H]3C1)CCS2 (relative stereo) [Compound 13] | 5 mg/kg | ≤ 0.04 mg/kg | 2.5 mg/kg |  |
| Cc1nc2ccccn2c(=O)c1CCN1CC[C@H]2Nc3ccccc3[C@@H]2C1 (relative stereo) [Compound 14] | 1.25 mg/kg | ≤ 0.16 mg/kg | 0.31 mg/kg |  |
| Cc1nc2scc(C)n2c(=O)c1CCN1CC[C@H]2Nc3ccc(F)cc3[C@@H]2C1 (relative stereo) [Compound 16] | 0.45 mg/kg | 0.015 mg/kg | 0.25 mg/kg | > 10 mg/kg |
| Cc1nc2ccccn2c(=O)c1CCN1CC[C@H]2Nc3ccc(F)cc3[C@@H]2C1 (relative stereo) [Compound 17] | 0.5 mg/kg | ≤ 0.04 mg/kg | 0.08 mg/kg |  |
| Cc1nc2n(c(=O)c1CCN1CC[C@H]3Nc4ccc(F)cc4[C@@H]3C1)CCCC2 (relative stereo) [Compound 18] | 2 mg/kg | 0.02 mg/kg | 0.31 mg/kg |  |
| Cc1nc2sccn2c(=O)c1CCN1CC[C@@H]2[C@@H](C1)c1ccccc1N2C (relative stereo) [Compound 19] | 1.25 mg/kg | 0.31 mg/kg | 8 mg/kg | 5 mg/kg |
| Cc1nc2ccccn2c(=O)c1CCN1CC[C@@H]2[C@@H](C1)c1ccccc1N2C (relative stereo) [Compound 20] | 1.25 mg/kg | ≤ 0.63 mg/kg | 1.25 mg/kg | 5 mg/kg |
| Cc1nc2sccn2c(=O)c1CCN1CC[C@H]2[C@H](C1)c1cc(F)ccc1N2c1ccc(F)cc1 (relative stereo) [Compound 22] | 1.25 mg/kg | 0.08 mg/kg | 1.25 mg/kg | 0.5 mg/kg |
| Cc1nc2scc(C)n2c(=O)c1CCN1CC[C@@H]2[C@@H](C1)c1cc(F)ccc1N2c1ccc(F)cc1 (relative stereo) [Compound 24] | 1.25 mg/kg | ≤ 0.04 mg/kg | 5 mg/kg |  |
| Cc1nc2n(c(=O)c1CCN1CC[C@@H]3[C@@H](C1)c1cc(F)ccc1N3c1ccc(F)cc1)CCCC2 (relative stereo) [Compound 25] | 0.12 mg/kg | 0.02 mg/kg | 0.31 mg/kg |  |
| Cc1nc2sccn2c(=O)c1CCN1CC[C@H]2Nc3ccc(Cl)cc3[C@@H]2C1 (relative stereo) [Compound 26] | 0.02 mg/kg | 0.005 mg/kg | 0.03 mg/kg |  |
| Cc1nc2scc(C)n2c(=O)c1CCN1CC[C@H]2Nc3ccc(Cl)cc3[C@@H]2C1 (relative stereo) [Compound 27] | 0.31 mg/kg | 0.005 mg/kg | 0.31 mg/kg |  |
| Cc1nc2ccccn2c(=O)c1CCN1CC[C@H]2Nc3ccc(Cl)cc3[C@@H]2C1 (relative stereo) [Compound 28] | 0.12 mg/kg | 0.005 mg/kg | 0.08 mg/kg | > 10 mg/kg |
| COc1ccc2c(c1)[C@@H]1CN(CCc3c(C)nc4sccn4c3=O)CC[C@H]1N2 (relative stereo) [Compound 29] | 5 mg/kg | 0.02 mg/kg | 5 mg/kg |  |
| COc1ccc2c(c1)[C@@H]1CN(CCc3c(C)nc4ccccn4c3=O)CC[C@H]1N2 (relative stereo) [Compound 30] | 2 mg/kg | ≤ 0.16 mg/kg | ≥ 10 mg/kg |  |
| Cc1nc(NCc2ccccc2)n(C)c(=O)c1CCN1CC[C@H]2Nc3ccc(F)cc3[C@@H]2C1 (relative stereo) [Compound 31] | ≥ 10 mg/kg | ≤ 0.16 mg/kg | 1.25 mg/kg | > 10 mg/kg |

— patent US6057325A, “Hexahydro-pyrido(4,3-b)indole derivatives as antipsychotic drugs” (Janssen Pharmaceutia, N.V., priority 1996, dated 2000)
